Experimental data as given in US12576039B2, “Lipid-polymer compositions and methods of use” (Max Biology Co. Ltd., priority 2020, dated 2026).

How the values were obtained:
[1] = Saturated solubility of CBD (HPLC); type: physicochemical; details: formulations containing PLURONIC F127 from 7% to 11%, excess CBD stirred overnight at room temperature, filtered 0.45 μm
Procedure: To determine the saturated solubility of CBD in the presence of PLURONIC® F127, PLURONIC® formulations were made as above. To each formulation excess CBD was added and left stirring overnight on a magnetic stirrer at room temperature (FIG. 17). To see how addition of lipids affects saturated solubility, lipids were added to 5% PLURONIC® F127 containing excess CBD using the ethanol injection method. For this, a 19G needle was immersed into the formulation being stirred, and 8.11% (volume of sample end volume) of the lipid stock formulation was injected at the rate of 750 μl/7 sec. Each formulation at this point was then left stirring overnight as above. On the following day, the formulations were filtered using 0.45 μm syringe filters and the amount of CBD dissolved was quantified using high pressure liquid chromatography.
CBD content was determined by diluting the samples in acetonitrile (ACN) (as needed) and then analysing them using HPLC. Calibration curve and sample quantification was carried out using an Agilent Infinity 1260 system. An Eclipse Plus C18, 4.6×150 mm, 3.5 μm column was purchased from […]. The mobile phase used was ACN:Water (82:18 v/v). HPLC analysis was carried at room temperature at a flow rate of 1 ml/min and an injection volume of 20 μl. […] Particle size and polydispersity was determined using a Brookhaven dynamic light scattering system.

[2] = very low solubility in water, high lipophilicity; cited from earlier work

C=C(C)[C@@H]1CCC(C)=C[C@H]1c1c(O)cc(CCCCC)cc1O [CBD, cannabidiol]
peak CBD concentration (saturated solubility) [1]: approximately 2 % w/v
Biopharmaceutical Classification System (BCS) classification [2]: class 2
